According to US20240148745A1, “COMPOUNDS FOR USE IN PROGRESSIVE MULTIPLE SCLEROSIS” (FONDAZIONE CENTRO SAN RAFFAELE, priority 2021, published 2024):
Counter-ions that a name gives are not always drawn.

These compounds were tested on rat oligodendrocyte progenitor CG4 line (assay: Differentiation assay on rat oligodendrocyte progenitor CG4 line (HCS, mCherry+)). Conditions: secondary screen of 49 selected compounds, 1 μM, 5 days.
Assay type: cell-based
Excerpt: Primary validation on CG4 line toxicity and differentiation. An innovative OPC line was developed for fast and reliable high content screening (HCS) of small compounds inducing oligodendrocyte differentiation. The line was genetically engineered by lentiviral transduction of rat CG4 cells (PubMed=1613821; DOI=10.1002/jnr.490310125; Louis J. C., Magal E., Muir D., Manthorpe M., Varon S.; CG-4, a new bipotential glial cell line from rat brain, is capable of differentiating in vitro into either mature oligodendrocytes or type-2 astrocytes. J. Neurosci. Res. 31:193-204(1992) to express mCherry fluorescent reporter (Evercooren, Anne & Avellana-Adalid, V. & Vitry, Sandrine & Nait-Oumesmar, Brahim & Lachapelle, Francois. (1997). Expansion of Oligodendrocyte Progenitors for Myelin Repair. 10.1007/978-1-4615-5949-8_21) in mature oligodendrocytes only, and EGFP at all stage of the oligodendroglial lineage: both the generation of mature oligodendrocytes (wmNl-mCherry) and the morphological changes associated with differentiation (CMV-EGFP) can be therefore monitored in a single assay. mCherry expression occurred only in O4+/GalC+ differentiated oligodendrocytes and GFP was ubiquitously expressed at all developmental stages. The line so obtained was validated using compounds with well-established effects on oligodendrocyte differentiation (cAMP and T3). Cell-based assay was standardized on the HCS platform (ArrayScanXTI, Brain and Spine Institute (Paris), validating the pro-differentiation effects of clemastine^27 and 9cis-retinoic acid.^28 For HCS validation of 274 compounds identified through in silico screen, double-fluo CG4 line cells were plated in 96 well-plates, 6500 cells/cm^2 and left for 24 h in proliferation. The other day, compounds were added (1 μM) for next 5 days of differentiation, with ⅔ medium changed after 3 days. 9-cis Retinoic Acid (9cis-RA; […]) served as a positive control, negative controls were basal (N1) medium and vehicle (basal+0.1% DMSO). Each compound was tested in triplicate and were imaged with ArrayScanXTI system (35 fields/well) after 5 days of differentiation.
FIG. 4 provides a schematic representation of High Content Screening (HCS) validation of the 274 compounds identified through in silico screening using CG4 line. […] In addition, the whole short list of 160 non-toxic compounds were screened using the CG4 high content phenotypic assay to further confirm the data from primary screening and to potentially select additional compounds with pro-myelinating activities. From this screening of the short list, 49 hit compounds were identified that increase differentiation either of CG4 cells or primary OPCs (FIG. 6).

SMILES | CG4 differentiation compared with 9cis-RA positive control
COCCOc1cnc2ccn([C@H](C)c3nnc4c(F)cc(-c5cnn(C)c5)cn34)c(=O)c2c1 [AMG-337] | promoting differentiation significantly higher than 9cis-RA positive control
CN(C(=O)C(c1ccccc1)c1ccccc1)[C@H](CN1CC[C@H](O)C1)c1ccccc1 [ASIMADOLINE] | promoting differentiation significantly higher than 9cis-RA positive control
Cc1ccc(C(=O)NC2CC2)cc1-n1ncc(C(=O)c2cccc(C#N)c2)c1N [Acumapimod] | promoting differentiation significantly higher than 9cis-RA positive control
C[N+](C)(C)CCOP(=O)([O-])OC[C@H](O)CO [CHOLINE ALFOSCERATE] | promoting differentiation significantly higher than 9cis-RA positive control
Cc1cc(Oc2ccc3nc(COc4ccc(CC5SC(=O)NC5=O)cc4)n(C)c3c2)cc(C)c1N (centres unmarked) [Efatutazone hydrochloride, Efatutazone Hydrochloride] | promoting differentiation significantly higher than 9cis-RA positive control
O=c1oc2c(O)c(O)cc3c(=O)oc4c(O)c(O)cc1c4c23 [Ellagic Acid] | promoting differentiation significantly higher than 9cis-RA positive control
Cc1cc(Nc2cc(CN3CCOCC3)c3nc(C)c(Cc4ccc(Cl)cc4F)n3n2)n[nH]1 [GANDOTINIB, Gandotinib] | promoting differentiation significantly higher than 9cis-RA positive control
O=C1NC(=O)C(c2cnc3ccccn23)=C1c1cn2c3c(cc(F)cc13)CN(C(=O)N1CCCCC1)CC2 [LY-2090314] | promoting differentiation significantly higher than 9cis-RA positive control
CCCc1nc(C(F)(F)F)ccc1/C=C/C(=O)N[C@H](C)c1cc(F)c(NS(C)(=O)=O)c(F)c1 [PAC-14028] | promoting differentiation significantly higher than 9cis-RA positive control
CNC(=O)c1cc(Oc2ccc(NC(=O)Nc3cc(C(C)(C)C)nn3-c3ccc4ncccc4c3)c(F)c2)ccn1 [REBASTINIB] | promoting differentiation significantly higher than 9cis-RA positive control
Cc1cncc(CN2CCC(=C3c4ccc(Cl)cc4CCc4cccnc43)CC2)c1 [Rupatadine] | promoting differentiation significantly higher than 9cis-RA positive control
O=C(O)Cn1c2c(c3cc(F)ccc31)CN(C(=O)c1cccc3ccccc13)CC2 [SETIPIPRANT] | promoting differentiation significantly higher than 9cis-RA positive control
C[C@]12CCC(=O)C[C@@H]1CC[C@@H]1[C@@H]2CC[C@]2(C)[C@@H](O)CC[C@@H]12 [STANOLONE] | promoting differentiation significantly higher than 9cis-RA positive control
CN(C(=O)c1ccc(F)cc1C(F)(F)F)C1CCN(c2nnc(-c3ccnn3C)c3ccccc23)CC1 [Taladegib] | promoting differentiation significantly higher than 9cis-RA positive control

The compounds below were run on murine cortical neurons (14 DIV) (assay: NMDA-mediated neuroprotective assay (CCK8 viability)). Conditions: 1 μM, 3 h pre-treatment, NMDA 8 μM 24 h, p<0.05.
Assay type: cell-based, mouse
Procedure: To assess neuroprotective activity of 160 selected non-toxic compounds on primary murine cortical neurons, obtained as described in the previous paragraph, ([…]), cultures were pre-treated with 1 μM compounds for either 3 or 24 hours, followed by 24 hours chronic stimulation with NMDA (8 μM) to induce neuronal damage. Each test plate included: a negative control (untreated), vehicle-treated control (0.02% vol/vol DMSO), a positive neurotoxic control—staurosporine 0.1 μM, a stressor—NMDA 8 μM, a positive neuroprotective control—NAC 300 μM, and a combination of stressor +neuroprotective molecule (NMDA+NAC). Cell viability was measured with Cell Counting Kit-8 assay compared to NMDA-treated control.
The potential neuroprotective activity of 160 selected non-toxic compounds was evaluated on murine cortical neurons (14 DIV) with either 3 h (FIG. 13) or 24 h compounds pre-treatment (FIG. 14). In assay with 3 h pre-treatment, 17 compounds were identified as potential NMDA-neuroprotective hits (marked with black asterisk in FIG. 13, stat. significant at p<0.05, Kruskal-Wallis test with post-hoc two-stage linear step-up procedure of Benjamini, Krieger and Yekutieli multiple comparison correction).

SMILES | neuroprotection of viability/metabolic activity against NMDA
C[C@H](Nc1ncnc2[nH]cnc12)c1cc2ccc(F)cc2nc1-c1ccccn1 [AMG-319] | hit compounds
CC(=O)Nc1cccc2c1c(Sc1ccc(Cl)cc1)c(C)n2CC(=O)O [AZD1981] | hit compounds

The compounds below were run on mouse cortical neurons (assay: Morphological integrity evaluation, NMDA 8 μM (MAP2 neurite length and branching)). Conditions: 3 h pre-treatment, NMDA 8 μM 24 h; Z>0.5 criteria.
Assay type: cell-based
Procedure: Apart of viability/metabolic readout in NMDA-mediated neurotoxicity assay, a neuronal structural integrity was evaluated by MAP2 staining. Mouse cortical neurons (14 DIV) cultured in MW96 plates were fixed with 4% paraformaldehyde (PFA). Fixed cells were incubated with blocking solution (PBS 1×, donkey serum 5%, Triton 0.1%) for 1-hour, primary antibody (rabbit α-MAP2, 1:250, Millipore) was applied in the same solution overnight at +4° C. […] Nuclei were stained with 4′-6-diamidino-2-phenylindole (DAPI, Roche). Microscopy was performed using ArrayScan™XTI (ThermoFisher) imaging platform. 15 images per well were acquired and analyzed by CellProfiler. Total neurite length and the total number of non-trunk branches were analyzed. Total neurite length and the total number of branching were evaluated from 15 images/well, each compound or control was tested in triplicates. The total neurite length and total number of branches were converted to a standardized Z-score using formula: Xij=((Xij−μ)/σ), where xij is the raw measurement of the compound located in well (i, j), and μ and σ are, respectively, the mean and the standard deviation of all measurements of the plate.^31
The morphological integrity of mouse cortical neurons upon chronic 24 h NMDA (8 μM) exposure with compounds pre-treatment (3 h) in preventive regimen was evaluated. Control (basal), DMSO, N-acetylcysteine (NAC) served as positive controls, while staurosporine and NMDA were negative controls.

SMILES | preservation of neurite length and network integrity (branching)
CC[C@H](NC(=O)c1cc(-c2ccccc2)nc2ccccc12)c1ccccc1 [AZD-7624] | preserved both neurite length and the network integrity (branching)
CNC(=O)c1ccc(-c2cnc3ncc(Cc4ccc5ncccc5c4)n3n2)cc1F [Capmatinib] | preserved both neurite length and the network integrity (branching)
Cc1cc(F)c(C(=O)Nc2cccc(-c3nncn3C(C)C)n2)cc1-n1cnc(C2CC2)c1 [GS-4997] | preserved both neurite length and the network integrity (branching)
CN=C(NS(=O)(=O)c1ccc(Cl)cc1)N1C[C@H](c2ccccc2)C(c2ccc(Cl)cc2)=N1 [Ibipinabant] | preserved both neurite length and the network integrity (branching)
CC(=O)N(C)c1cccc(-c2ccnc3c(C(=O)c4cccs4)cnn23)c1 [Indiplon] | preserved both neurite length and the network integrity (branching)
N[C@@H](Cc1ccccc1)C(=O)O [L-Phenylalanine] | preserved both neurite length and the network integrity (branching)
O=C(O)[C@H](CC(=O)N1C[C@H]2CCCC[C@H]2C1)Cc1ccccc1 [Mitiglinide] | preserved both neurite length and the network integrity (branching)
COc1ccsc1CNCC[C@@]1(c2ccccn2)CCOC2(CCCC2)C1 [Oliceridine] | preserved both neurite length and the network integrity (branching)
CNC(=O)c1ccc2cc([C@@]3(O)CCn4cncc43)ccc2c1 [Orteronel] | preserved both neurite length and the network integrity (branching)
CN1Cc2cc(Cl)ccc2-n2c(nnc2[C@H]2CC[C@H](Oc3ccccn3)CC2)C1 [RG7314] | preserved both neurite length and the network integrity (branching)
O=C(O)CCn1c2c(c3ccccc31)C[C@H](NS(=O)(=O)c1ccc(F)cc1)CC2 [Ramatroban] | preserved both neurite length and the network integrity (branching)
CC[C@H](CO)Nc1nc(NCc2ccccc2)c2ncn(C(C)C)c2n1 [Seliciclib] | preserved both neurite length and the network integrity (branching)
O=c1sn(-c2cccc3ccccc23)c(=O)n1Cc1ccccc1 [Tideglusib] | preserved both neurite length and the network integrity (branching)
NC(=O)c1ccc(N(C(N)=O)c2c(F)cccc2F)nc1-c1ccc(F)cc1F [VX-702] | preserved both neurite length and the network integrity (branching)
C[C@@H]1COC(Nc2ccc3ncnc(Nc4ccc(OCc5nccs5)c(Cl)c4)c3c2)=N1 [Varlitinib] | preserved both neurite length and the network integrity (branching)
CC(C)(C)S(=O)(=O)N[C@H]1CC[C@H](C(=O)Nc2ccc(C(F)(F)F)cn2)CC1 [Velneperit] | preserved both neurite length and the network integrity (branching)
